Among the test systems are Enterococcus faecium; Escherichia coli; Pseudomonas aeruginosa; Staphylococcus aureus; Escherichia coli O157; Pseudomonas aeruginosa 1; Pseudomonas aeruginosa 2; Pseudomonas aeruginosa 5; Staphylococcus aureus 1; Staphylococcus aureus 4; Acinetobacter sp. 301; Acinetobacter sp. 312; Acinetobacter sp. 322; Candida albicans 4615; Candida albicans 4748; Candida albicans 4762; Candida albicans SC5314; Candida albicans; Candida krusei ATCC 6258; Candida tropicalis 4345; Candida tropicalis 4912; Candida tropicalis; Escherichia coli 207; Escherichia coli 225; Escherichia coli 35; Escherichia coli 43.

Holding throughout (test): ≥ marks a high value that may be exact or a test limit, other limits are often not marked, values filed in µg/mL are converted to µM
The subject of assay [1] is Aspergillus flavus KCTC 1375.
In assay [2] the test system is Candida albicans ATCC 90028.
Assay [3] relates to Enterococcus faecium ATCC 19434.
For assay [4], the system named is Escherichia coli O157:H7 ATCC 43895.
Assay [5] relates to Malassezia furfur KCTC 7744.
Assay [6] has as its system Pseudomonas aeruginosa ATCC 27853.
Assay [7] concerns Staphylococcus aureus ATCC 25923.
For assay [8], the system named is Bacillus subtilis KCTC 1918.
Assay [9] concerns Escherichia coli KCTC 1682.
For assay [10], the system named is Pseudomonas aeruginosa KCTC 1637.
Assay [11] relates to Salmonella typhimurium KCTC 1926.
For assay [12], the system named is Staphylococcus aureus KCTC 1621.
For assay [13], the system named is Streptococcus pyogenes KCTC 3096.
Assay [14] has as its system Candida glabrata ATCC 15126.
The subject of assay [15] is Candida parapsilosis ATCC 22019.
The subject of assay [16] is Candida tropicalis ATCC 13803.
Assay [17] concerns Erwinia amylovora PMV 6076.
The test system of assay [18] is Escherichia coli ATCC 25922.
The test system of assay [19] is Klebsiella pneumoniae 202.
Assay [20] deals with Klebsiella pneumoniae 305.
The subject of assay [21] is Klebsiella pneumoniae 341.
Assay [22] has as its system Pseudomonas aeruginosa 302.
Assay [23] deals with Pseudomonas syringae pv. actinidiae Psa3700.1.1.
The subject of assay [24] is Pseudomonas syringae pv. syringae EPS 94.
Assay [25] concerns Xanthomonas arboricola pv. pruni CFBP 5563.
For assay [26], the system named is Xanthomonas campestris pv. Vesicatoria 2133-2.
For assay [27], the system named is Xanthomonas fragariae Xf349-9A.

Broadly, the MIC is the least concentration at which growth counts as inhibited. Read a high MIC as a less susceptible organism.

≈ marks a conversion by molar mass, not a printed value.

Take `CC(C)[C@H](NC(=O)[C@H](Cc1cnc[nH]1)NC(=O)[C@H](C)NC(=O)[C@H](C)NC(=O)[C@H](CCCCN)NC(=O)[C@H](CCCCN)NC(=O)[C@H](Cc1ccccc1)NC(=O)[C@H](Cc1ccccc1)NC(=O)[C@H](CO)NC(=O)CNC(=O)[C@H](Cc1c[nH]c2ccccc12)NC(=O)CN)C(=O)NCC(=O)N[C@@H](CCCCN)C(=O)N[C@@H](Cc1cnc[nH]1)C(=O)N[C@H](C(=O)NCC(=O)N[C@@H](CCCCN)C(=O)N[C@@H](C)C(N)=O)C(C)C` [GWGSFFKKAAHVGKHVGKA]: the minimum inhibitory concentration (MIC) is 28.3 µM (≈ 56.9 µg/mL) in [1]; not below 40 µM in assay [2]; 28.3 µM (≈ 56.9 µg/mL) in assay [3]; 28.3 µM (≈ 56.9 µg/mL) against Enterococcus faecium; 20 µM (≈ 40.2 µg/mL) in assay [4]; 28.3 µM (≈ 56.9 µg/mL) with Escherichia coli. The MIC in assay [5] was not below 40 µM; in assay [6], 20 µM (≈ 40.2 µg/mL); in the assay on Pseudomonas aeruginosa, 28.3 µM (≈ 56.9 µg/mL); in assay [7], 20 µM (≈ 40.2 µg/mL); against Staphylococcus aureus it was 14.1 µM (≈ 28.4 µg/mL).

Turning to `CC[C@H](C)[C@H](NC(=O)[C@H](CCCCN)NC(=O)[C@H](CCCCN)NC(=O)[C@H](Cc1ccccc1)NC(=O)[C@H](CC(C)C)NC(=O)[C@H](CCCCN)NC(=O)[C@H](Cc1c[nH]c2ccccc12)NC(=O)[C@@H](N)CCCCN)C(=O)N1CCC[C@H]1C(=O)N[C@@H](CCCCN)C(=O)N[C@@H](Cc1ccccc1)C(=O)N[C@@H](CC(C)C)C(=O)N[C@@H](Cc1cnc[nH]1)C(=O)N[C@@H](CO)C(=O)N[C@@H](C)C(=O)N[C@@H](CCCCN)C(=O)N[C@@H](CCCCN)C(=O)N[C@@H](Cc1ccccc1)C(N)=O` [KWKLFKKIPKFLHSAKKF], the minimum inhibitory concentration (MIC) in [8] turned out to be 1.56 µM (≈ 3.55 µg/mL); in [9] it was 6.25 µM (≈ 14.2 µg/mL); in assay [10] it was 3.12 µM (≈ 7.11 µg/mL); in assay [11] it was 0.78 µM (≈ 1.77 µg/mL); in assay [12], 3.12 µM (≈ 7.11 µg/mL); in [13], 0.78 µM (≈ 1.77 µg/mL).

`CC[C@H](C)[C@H](NC(=O)[C@H](CC(C)C)NC(=O)[C@H](CCCN=C(N)N)NC(=O)[C@@H](NC(=O)[C@H](C)NC(=O)[C@H](CCCCN)NC(=O)[C@H](CCCN=C(N)N)NC(=O)[C@H](CC(C)C)NC(=O)[C@@H](N)CCCN=C(N)N)C(C)C)C(=O)N[C@@H](CCCCN)C(=O)O` [RLRKAVRLIK]: the MIC is 5 µM (≈ 6.26 µg/mL) with Enterococcus faecium; 5 µM (≈ 6.26 µg/mL) against Escherichia coli O157; 5 µM (≈ 6.26 µg/mL) with Pseudomonas aeruginosa 1; 3.54 µM (≈ 4.43 µg/mL) in the assay with Pseudomonas aeruginosa 2; 2.5 µM (≈ 3.13 µg/mL) against Pseudomonas aeruginosa 5; 10 µM (≈ 12.5 µg/mL) in the assay with Pseudomonas aeruginosa. Moreover, the MIC in the assay on Staphylococcus aureus 1 came to 2.5 µM (≈ 3.13 µg/mL); against Staphylococcus aureus 4, 5 µM (≈ 6.26 µg/mL); against Staphylococcus aureus it was 14.1 µM (≈ 17.7 µg/mL).

Take `CC(C)C[C@H](NC(=O)[C@H](CCC(N)=O)NC(=O)[C@H](CCCCN)NC(=O)[C@H](CCCN=C(N)N)NC(=O)[C@H](Cc1ccccc1)NC(=O)[C@@H](N)Cc1c[nH]c2ccccc12)C(=O)N[C@@H](CCCCN)C(=O)N[C@@H](Cc1c[nH]c2ccccc12)C(=O)O` [WFRKQLKW]: the MIC was 2.37 µM (≈ 2.83 µg/mL) with Acinetobacter sp. 301; 4.75 µM (≈ 5.66 µg/mL) in the assay on Acinetobacter sp. 312; 3.36 µM (≈ 4 µg/mL) with Acinetobacter sp. 322; not below 42 µM with Candida albicans 4615; 21 µM (≈ 25 µg/mL) in the assay on Candida albicans 4748; not below 83.9 µM against Candida albicans 4762. Besides, the MIC in the assay on Candida albicans SC5314 came out at 10.5 µM (≈ 12.5 µg/mL); against Candida albicans, 5.25 µM (≈ 6.25 µg/mL); in assay [14], 21 µM (≈ 25 µg/mL); against Candida krusei ATCC 6258 it was 21 µM (≈ 25 µg/mL); in [15] it was 5.25 µM (≈ 6.25 µg/mL); in the assay with Candida tropicalis 4345 it was 21 µM (≈ 25 µg/mL). The MIC is 10.5 µM (≈ 12.5 µg/mL) against Candida tropicalis 4912; 21 µM (≈ 25 µg/mL) in [16]; not below 83.9 µM against Candida tropicalis; not below 50 µM in [17]; 1.68 µM (≈ 2 µg/mL) in the assay with Escherichia coli 207; 0.839 µM (≈ 1 µg/mL) in the assay with Escherichia coli 225. In addition, the MIC amounted to 6.71 µM (≈ 8 µg/mL) against Escherichia coli 35; 3.36 µM (≈ 4 µg/mL) in the assay with Escherichia coli 43; 0.839 µM (≈ 1 µg/mL) in assay [18]; 6.71 µM (≈ 8 µg/mL) in [19]; 3.36 µM (≈ 4 µg/mL) in assay [20]; 1.68 µM (≈ 2 µg/mL) in assay [21]. Also, the MIC in assay [22] was 6.71 µM (≈ 8 µg/mL); in assay [23] it was not below 50 µM; in [24] it was not below 50 µM; in assay [25], not below 50 µM; in [26], not below 50 µM; in assay [27], not below 50 µM.

The values above are taken from DBAASP.
